Results reported in US20250186600A1, “EXCIPIENT COMPOUNDS FOR PROTEIN FORMULATIONS” (Comera Life Sciences, Inc., priority 2020, published 2025).
Structures can show the parent of a compound that is named as a salt. Each block holds one compound with its values, some of them ahead of it.

Experiments:
[1] = Table 13; versus 79.7 cP with no excipient
[2] = system: infliximab; test: Thermal stability at 50° C. with caffeine and excipients, SE-HPLC (Example 63); type: physicochemical; conditions: excipient 0.5 M, caffeine 50 mM, infliximab 10 mg/mL, 5 mM phosphate pH 7.5, 50° C., 180 min
Experimental: Therapeutic proteins stress leads to aggregation of the protein and a decrease in the active native species. […] The aliquots were withdrawn at 0 min, 90 min and 180 min. […] Diode array detector.

[3] = system: ustekinumab; test: Urea denaturation, Sypro orange fluorescence (Example 44); type: physicochemical; conditions: excipient 5 mg/mL, ustekinumab 1 mg/mL, 6M urea, 20 mM histidine pH 6.0, Sypro orange fluorescence
[4] = system: ustekinumab; test: Thermal stability at 65° C., monomer by SE-HPLC (Example 46); type: physicochemical; conditions: excipient 5 mg/mL, ustekinumab 1 mg/mL, 20 mM histidine pH 6.0, incubated at 65° C.
Source text: Therapeutic proteins are frequently subjected to fluctuations in temperatures which may lead to changes in tertiary and secondary structural elements. This can lead to aggregation of the protein and decrease the amount of active native protein. […] All excipients used in this Example, listed in Table 47 below, were of the highest purity, and were obtained from Sigma Aldrich (St. Louis, MO) or Cayman Chemical (Ann Arbor, MI).

[5] = system: ustekinumab; test: Stabilization at low pH, Sypro orange fluorescence (Example 45); conditions: excipient 5 mg/mL, ustekinumab 1 mg/mL, glycine acidification buffer pH 2.6, Sypro orange fluorescence
[6] = system: ustekinumab; test: Thermal stability at 65 deg C., increase in percent monomer by SE-HPLC (Example 55); type: physicochemical; conditions: excipient 5 mg/mL, ustekinumab 1 mg/mL, 20 mM Histidine pH 6.0, 65 deg C., 120 min
Source text: Therapeutic proteins are frequently subjected to fluctuations in temperatures, which may lead to changes in their tertiary and secondary structural elements. This leads to aggregation of the protein and a decrease in the active native species.

[7] = system: ustekinumab-FITC; test: Thermal stability of model ADC at 65° C. by SE-HPLC (Example 56); conditions: excipient 5 mg/mL, ustekinumab-FITC 1 mg/mL, 20 mM Histidine pH 6.0, 65° C.
[8] = system: omalizumab; test: Freeze-thaw stability, light scattering at 350 nm (Example 48); type: physicochemical; conditions: excipient 5 mg/mL, omalizumab 5 mg/mL, 20 mM histidine pH 6.0, at least 5 freeze (−80° C.)/thaw cycles
[9] = system: omalizumab; test: Freeze/thaw stress (6 cycles), monomer by SE-HPLC (Example 57); type: physicochemical; conditions: excipient 100 mM, omalizumab 2 mg/mL, 20 mM Histidine pH 6.0, freeze (−80° C.)/thaw
Experimental: Therapeutic proteins are frequently kept at low temperatures to improve their kinetic stability and minimize structural perturbations that could lead to the aggregation of the protein and a decrease in the active native species. In certain cases, this might be done by freezing the formulation until use. However, the low temperatures, concentration gradients, and ice formation during repeated freezing and thawing can stress the protein. […] The formulations were then aliquoted into 0.5 mL cryovials and frozen at −80° C. for 120 min. The samples were then thawed using a water bath kept at room temperature.

[10] = system: omalizumab; test: Mechanical shear stress (agitation 72 h), absorbance at 350 nm (Example 47); type: physicochemical; conditions: excipient 0.5 mg/mL, omalizumab 2 mg/mL, 22° C., 72 h agitation at 300 rpm
[11] = system: ustekinumab; test: Accelerated aging at 40° C. for 4 weeks, monomer by SE-HPLC (Example 58); type: physicochemical; conditions: excipient 100 mM, ustekinumab 2 mg/mL, 20 mM Histidine pH 6.0, 40° C. for 4 weeks
Experimental: 1 mL of each sample was aliquoted into 2 mL glass vials (West Pharmaceutical services, PA) and incubated at 40° C. for 4 weeks. The aliquots were withdrawn after 0, 1, 2, 3, and 4 weeks.

[12] = Caffeine solubility testing with co-solutes at ambient temperature (Examples 31-32); conditions: with co-solute
Experimental: Prepared solutions were used either neat or diluted with deionized water.
A small magnetic stir bar was added to the vial, and the solution was allowed to mix vigorously on a stir plate for about 10 minutes.

[13] = system: bovine gamma globulin (BGG); test: Normalized viscosity of BGG with caffeine and a secondary excipient (Example 40); type: physicochemical; conditions: Excipient A caffeine 15 mg/mL + Excipient B 14 mg/mL; BGG about 280 mg/mL, 20 mM histidine pH 6, 25° C.
[14] = system: infliximab; test: Thermal degradation assay at 55° C., normalized monomer loss rate by HP-SEC (Example 51); type: physicochemical; conditions: infliximab about 2 mg/mL, 20 mM phosphate pH 7, 55° C.
Experimental: ® infliximab was obtained from the Clinigen Group and reconstituted according to the instructions in the Janssen package insert, resulting in a 10 mg/mL infliximab solution in 5 mM phosphate buffer, pH about 7, with 50 mg/mL sucrose and 0.05 mg/mL polysorbate 80. The reconstituted drug product was then combined 1:1 by volume with 50 mM sodium acetate buffer at pH 5. The resulting solution was then injected onto a small preparative scale cation exchange column (GE Healthcare, Chicago, IL). After the infliximab was loaded onto the column, the column was washed with 10 column volumes of 50 mM sodium acetate buffer, pH 5. The infliximab was then eluted from the column with five column volumes of a 250 mM sodium chloride, 50 mM sodium acetate buffer at pH 5. […] Stock solutions of either 4 or 8 mg/mL infliximab in 20 mM phosphate buffer at pH 7 were then used in subsequent tests.
All excipients used in this Example, listed in Table 52 below, were of the highest purity, and were obtained from Sigma Aldrich (St. Louis, MO) or Cayman Chemical (Ann Arbor, MI). The stock infliximab solutions were mixed with stock excipient solutions containing the excipients listed in Table 52 formulated in 20 mM phosphate buffer, pH 7 to achieve a final infliximab concentration of about 2 mg/mL in each sample. The samples containing the infliximab solutions and the stock excipient solutions were then aliquoted into five 100 μL aliquots in PCR tubes. […] These stressed samples were then analyzed for monomer content by high performance size exclusion chromatography (HP-SEC) using an Agilent 1100 series HPLC equipped with a diode array detector monitoring absorbance at 280 nm. […] For each sample, the monomer peak area was divided by the monomer peak area obtained from an identical but unstressed sample to obtain the percent monomer remaining after exposure to thermal stress. The remaining monomer as a percentage of the unstressed sample was then plotted as a function of incubation time and the absolute value of the slope of a linear fit to the data was recorded as the monomer loss rate.

Compound: O=C(O)CC(O)(CC(=O)O)C(=O)O
Viscosity Reduction (%) [1]: 6.0%

Compound: OC[C@@H](O)C(O)[C@H](O)CO [Arabitol]
% increased stability [3]: 2.7%
Monomer Fraction % change from control [4]: 6.0%
% reduction in light scattering at 350 nm vs. control [8]: 17.8%
% change in stability [5]: 3.4%

Compound: O=C1O[C@H]([C@@H](O)CO)C(O)=C1O[C@H]1O[C@H](CO)[C@@H](O)[C@H](O)[C@H]1O [Ascorbyl glucoside]
% change compared to control [2]: 45.8%

Compound: O=C(O)[C@@H]1C[C@@H](O)CN1 [Hydroxyproline]
% change compared to control [2]: 67.3%

Compound: OC[C@H]1O[C@@](CO)(O[C@H]2O[C@H](CO)[C@@H](O)[C@H](O)[C@H]2O)[C@@H](O[C@H]2O[C@H](CO)[C@@H](O)[C@H](O)[C@H]2O)[C@@H]1O [Melzitose]
% increased stability [3]: 4.7%
Monomer Fraction % change from control [4]: 2.0%
% change in stability [5]: 2.0%

Compound: C[C@H](CC[C@@H](O[C@@H]1O[C@H](CO[C@@H]2O[C@H](CO)[C@@H](O)[C@H](O)[C@H]2O)[C@@H](O)[C@H](O)[C@H]1O[C@@H]1O[C@H](CO)[C@@H](O)[C@H](O)[C@H]1O)C(C)(C)O)[C@H]1CC[C@@]2(C)[C@@H]3CC=C4[C@@H](CC[C@H](O[C@@H]5O[C@H](CO[C@@H]6O[C@H](CO)[C@@H](O)[C@H](O)[C@H]6O)[C@@H](O)[C@H](O)[C@H]5O)C4(C)C)[C@]3(C)[C@H](O)C[C@]12C [Mogroside V]
% decrease of A350 signal vs. control [10]: 68.2%

Compound: O=P([O-])([O-])[O-].[K+].[K+].[K+] [Potassium phosphate, potassium phosphate tribasic]
Viscosity Reduction (%) [1]: 9.3%

Compound: O=C1NS(=O)(=O)c2ccccc21.[Na] [Saccharin, Na, saccharin sodium salt]
dissolution of caffeine relative to the reported caffeine solubility limit [12]: at least about four times

Compound: O=C(CO)[C@@H](O)[C@H](O)[C@H](O)[C@H](O)CO [Sedoheptulose]
% increased stability [3]: 3.7%
Monomer Fraction % change from control [4]: 3.4%
% increase in monomer content vs. control [6]: 4.1%
% increase in monomer content vs. control [9]: 11.35%
% increase in monomer content vs. control [11]: 7.7%
% change in stability [5]: 2.6%
% increase in monomer content vs. control [7]: 37.68%

Compound: O=S(=O)([O-])[O-].[Na+].[Na+] [Sodium sulfate]
Normalized Viscosity [13]: 0.78
Viscosity Reduction (%) [1]: 5.8%

Compound: C[N+](C)(C)[O-] [Trimethyl amine N-oxide]
% change compared to control [2]: 10.9%

Compound: O=C(CO)[C@@H](O[C@H]1O[C@H](CO)[C@@H](O)[C@H](O)[C@H]1O)[C@H](O)[C@H](O)CO [Turanose]
% increase in monomer content vs. control [6]: 5.8%
% increase in monomer content vs. control [9]: 75.99%
% increase in monomer content vs. control [11]: 8.3%
% increase in monomer content vs. control [7]: 48.06%

Compound: Cl.NCCc1ccc(O)cc1 [Tyramine HCl]
dissolution of caffeine relative to the reported caffeine solubility limit [12]: at least about four times

Compound: OC[C@H]1O[C@H](O[C@H]2O[C@H](CO)[C@@H](O)[C@H](O)[C@H]2O)[C@H](O)[C@@H](O)[C@@H]1O [trehalose]
Monomer loss rate ([14]; excipient 200 mM): 0.0737 % mon/min
Normalized monomer loss rate ([14]; excipient 200 mM): 0.460
Monomer loss rate ([14]; excipient 250 mM): 0.0781 % mon/min
Normalized monomer loss rate ([14]; excipient 250 mM): 0.488
% increase in monomer content vs. control [9]: 77.68%
% change in stability [5]: 2.5%

Now from value to compound:

% change compared to control [2]: 9.65%
Compound: OC[C@H]1O[C@H](O[C@H]2[C@H](O)[C@@H](O)C(O)O[C@@H]2CO)[C@H](O)[C@@H](O)[C@@H]1O (mixture of isomers) [Maltose]

% increased stability [3]: 53.6%
Monomer Fraction % change from control [4]: 8.4%
% change in stability [5]: 32.2%
Compound: Nc1ncnc2c1ncn2[C@@H]1O[C@H](CO)[C@@H](O)[C@H]1O [Adenosine]

% increase in monomer content vs. control [6]: 2.8%
% increase in monomer content vs. control [7]: 63.41%
Compound: O=C[C@@H](O)[C@H](O)[C@H](O)[C@H](O)CO [Altrose]

% increase in monomer content vs. control [6]: 2.6%
% increase in monomer content vs. control [9]: 10.02%
% increase in monomer content vs. control [7]: 79.95%
Compound: O=C1O[C@@H]([C@H](O)CO)[C@@H](O)[C@H]1O [Gulonolactone]

% decrease of A350 signal vs. control [10]: 69.0%
Compound: C[C@]1(OC(=O)/C=C/c2ccccc2)C[C@@H](O)[C@]2(O)C=CO[C@@H](O[C@@H]3O[C@H](CO)[C@@H](O)[C@H](O)[C@H]3O)[C@@H]21 [Harpagoside]

% change compared to control [2]: 58.9%
Compound: O[C@H]1[C@H](O)[C@@H](O)[C@H](O)[C@@H](O)[C@H]1O [Inositol]

% increase in monomer content vs. control [6]: 3.1%
% increase in monomer content vs. control [11]: 4.4%
% increase in monomer content vs. control [7]: 23.49%
Compound: CC(=O)N[C@@H]1C(O)O[C@H](CO)[C@@H](O)[C@@H]1O (stereo partly shown) [N-Acetyl Mannosamine]

% increase in monomer content vs. control [9]: 6.63%
Compound: CC(=O)N[C@@H]1C(O)O[C@H](CO)[C@@H](O)[C@@H]1O (stereo partly shown) [N-acetyl mannosamine]

dissolution of caffeine relative to the reported caffeine solubility limit [12]: at least about four times
Compound: CCN(CC)CCOC(=O)c1ccc(N)cc1 [Procaine HCl, reference compound]

% change compared to control [2]: 46.2%
Compound: O=P(O)(O)C(O)(Cc1cccnc1)P(=O)(O)O [Risedronate]

% change compared to control [2]: 12.6%
Compound: Maltotriose
